Results from patent US12146131B2, “Testing apparatus and testing method” (HITACHI HIGH-TECH CORPORATION, priority 2019, dated 2024).

How the values were obtained:
Assay type in all cases: cell-based
bacteria [1] = test: drug sensitivity test, bacterial area value from time-series microscopic images (image processing of first embodiment); conditions: FIG. 9
Text: (§1) In a drug sensitivity test for bacteria, it is important to measure properties of bacteria and increase or decrease in the number of bacteria, and in a third embodiment, for example, an example applied to the drug sensitivity test will be described. Also in the third embodiment, the fine particle testing apparatus 100 described in the first embodiment can be used. However, the sample solution 108 contains bacteria, a medium component necessary for growth of the bacteria, and an antimicrobial agent to be tested. The fine particle testing apparatus 100 is temperature-adjusted to a temperature suitable for growth of the bacteria, for example, 37° C. Further, a plate having 96 holes or 384 holes can be used as the testing plate 102.
FIG. 9 is a diagram illustrating a relationship of the area of a bacterial region corresponding to the sum of area values of fine particles obtained by executing the processing of steps 200 to 204 (image processing of the first embodiment) on a plurality of time-series images obtained by the imaging part 105 of the fine particle testing apparatus 100. This measurement result is a result of imaging bacteria cultured for 8 hours in a culture solution containing ampicillin/sulbactam at concentrations of 0.5/0.25 μg/mL and 32/16 μg/mL.

bacteria [2] = test: drug sensitivity test, turbidity measurement of the well after 18 hours of culture; conditions: turbidity after 18 hours from start of culture
Text: as §1, with “Further, a plate having 96 holes or 384 holes can be used as the testing plate 102.” left out
Here, the sensitivity of this bacterium to ampicillin/sulbactam is found to be “proliferation” at a concentration of 0.5/0.25 μg/mL and “suppression” at a concentration of 32/16 μg/mL by turbidity measurement of the well after 18 hours from the start of culture. […] This example has shown that proliferation/suppression is determined at two concentrations of the antimicrobial agent, but actually, the concentration of the drug is more finely changed to determine proliferation/suppression. The minimum antimicrobial agent concentration is referred to as minimum inhibitory concentration (MIC), and the MIC is preferably calculated based on the result of proliferation/suppression. […]

Pseudomonas aeruginosa [3] = test: drug sensitivity test, turbidity measurement after 18 hours of culture; conditions: turbidity after 18 hours from start of culture
Pseudomonas aeruginosa [4] = test: drug sensitivity test, bacterial area value from time-series microscopic images (image processing of second embodiment); conditions: cultured 12 hours, FIG. 10
Text: as §1
In the fine particle testing apparatus 100, an image is acquired by focusing the lens 104 on the vicinity of the well bottom surface of the testing plate 102 for each imaging. However, in a case where the fine particles are bacteria, in particular, highly motile bacteria, even if adjustment is performed for each imaging so as to focus on one well each time, an image with a clear contour may not be acquired, resulting in an image as illustrated in FIGS. 8A to 8B. As an example of such a case, a measurement example using Pseudomonas aeruginosa considered to have high motility as a bacterium different from the result of FIG. 9 will be described (see FIG. 10). […]

| Substance | bacterial area value over time (bacteria [1]; ampicillin/sulbactam 0.5/0.25 μg/mL, cultured 8 hours) | bacterial area value over time (bacteria [1]; ampicillin/sulbactam 32/16 μg/mL, within 8 hours from start of culture) | sensitivity of bacterium (proliferation/suppression) (bacteria [2]; ampicillin/sulbactam 0.5/0.25 μg/mL) | sensitivity of bacterium (proliferation/suppression) (bacteria [2]; ampicillin/sulbactam 32/16 μg/mL) | sensitivity of bacterium (proliferation/suppression) (Pseudomonas aeruginosa [3]; gentamicin 0.12 μg/mL) | sensitivity of bacterium (proliferation/suppression) (Pseudomonas aeruginosa [3]; gentamicin 8 μg/mL) | bacterial area value over time (Pseudomonas aeruginosa [4]; gentamicin 0.12 μg/mL) | bacterial area value over time (Pseudomonas aeruginosa [4]; gentamicin 8 μg/mL) |
| --- | --- | --- | --- | --- | --- | --- | --- | --- |
| ampicillin/sulbactam | starts to increase exponentially after 2 hours from the start of culture | substantially unchanged from the initial value | proliferation | suppression |  |  |  |  |
| gentamicin |  |  |  |  | proliferation | suppression | starts to increase exponentially after 4 hours from the start of culture | slightly increases |
